Results on 29 compounds are retold here after patent US20240287124A1, “PRODRUGS OF 4'-SUBSTITUTED NUCLEOSIDE REVERSE TRANSCRIPTASE INHIBITORS” (Merck Sharp & Dohme LLC, priority 2023, published 2024).

≈ marks a conversion by molar mass, not a printed value. Read-outs that look alike come from different tables or passages of the source.

Data set [1] is described as follows: Aqueous solubility in PBS, pH 7.4. It is filed as physicochemical. To be noted: pH 7.4, aqueous buffer, thermodynamic from solid, pH 7.4 phosphate buffered saline, 24 hours, amorphous or crystalline material, read-out: Aqu. Solubility. The procedure, abridged: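 Excess solid suspended at 0.5 mg/mL in PBS pH 7.4 and stirred 24 hours. Filtrate (0.45 μm) diluted 1:1 with ACN:H2O and quantified by UPLC against a standard curve; residual solid phase checked by XRPD and PLM.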

In data set [2] the test system is HIV-1 wild-type (R8) virus. Put plainly: Viral KINetics in Green cells (VIKING) assay, HIV-1 replication in MT4-GFP reporter cells. It is filed as cell-based. To be noted: Human immunodeficiency virus 1, 10% normal human serum, MT4-GFP cells, HIV-1 wild-type (R8); read-out: Viking (10% NHS), IC50. The procedure, abridged:
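Compounds in 3-fold, 10-point series (typical 4 μM-0.2 nM) in 10% normal human serum received MT4 GFP-reporter T cells pre-infected overnight with wild-type R8 virus (MOI ~0.01). Ratio of GFP-positive cells at 72 vs 48 h defined replication; IC50 from nonlinear 4-parameter dose-response fitting.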

The nature of data set [3]: Plasma stability in frozen human plasma. It is filed as in vitro ADME. The settings on record: frozen human plasma at 37° C., 0-3 hr; read-out: T1/2 Human Plasma (converted). Here is the method:
Plasma stability of the compounds was evaluated in frozen human plasma at 37° C. in a 10% CO2 environment. The stability of the analyte was assessed by determining the percentage of drug loss over the course of 0, 0.25, 0.5, 1, and 3 hr. In addition, the appearance of Compound A was determined for the same time course. Percent of drug loss as based on ratio with internal standard. Analyte concentrations were measured by LC/MS/MS. Linear regression was performed with log transformed percent of average TO values and linear time values. The elimination rate constant (ke) was calculated from the slope of this regression line and the half-life (T½) calculated based on the elimination rate constant.

As for `C#C[C@]1(CO)O[C@@H](n2ccc3c(N)nc(Cl)nc32)C[C@@H]1OC(=O)C(CC)CC` [Example 45, (2R,3S,5R)-5-(4-amino-2-chloro-7H-pyrrolo[2,3-d]pyrimidin-7-yl)-2-ethynyl-2-(hydroxymethyl)tetrahydrofuran-3-yl 2-ethylbutanoate], the solubility at 24 h in data set [1] (phosphate buffered saline) was determined as 45 µg/mL (≈ 111 µM). The IC50 in data set [2] amounted to 143 nM. Besides, in data set [3], the half-life is 19.4 h.

Regarding `C#C[C@]1(COC(=O)c2ccccc2)O[C@@H](n2ccc3c(N)nc(Cl)nc32)C[C@@H]1O` [Example 9, ((2R,3S,5R)-5-(4-amino-2-chloro-7H-pyrrolo[2,3-d]pyrimidin-7-yl)-2-ethynyl-3-hydroxytetrahydrofuran-2-yl)methyl benzoate], in data set [1] (phosphate buffered saline), the solubility at 24 h was found to be 182 µg/mL (≈ 441 µM). Also, the IC50 in data set [2] worked out at 2.8 nM. In data set [3], the half-life is 0.026 h.

As to `C#C[C@]1(COC(=O)OCCCCC)O[C@@H](n2ccc3c(N)nc(Cl)nc32)C[C@@H]1O` [Example 14, ((2R,3S,5R)-5-(4-amino-2-chloro-7H-pyrrolo[2,3-d]pyrimidin-7-yl)-2-ethynyl-3-hydroxytetrahydrofuran-2-yl)methyl pentyl carbonate], the solubility at 24 h in data set [1] (phosphate buffered saline) stood at 113 µg/mL (≈ 267 µM). Besides, the IC50 in data set [2] worked out at 2.5 nM. The half-life in data set [3] was under 0.25 h.

Regarding `C#C[C@]1(COC(=O)C(CC)CC)O[C@@H](n2ccc3c(N)nc(Cl)nc32)C[C@@H]1OC(=O)C(CC)CC` [Example 44, (2R,3S,5R)-5-(4-amino-2-chloro-7H-pyrrolo[2,3-d]pyrimidin-7-yl)-2-(((2-ethylbutanoyl)oxy)methyl)-2-ethynyltetrahydrofuran-3-yl 2-ethylbutanoate], the solubility at 24 h in data set [1] (phosphate buffered saline) is under 1 µg/mL. In addition, the half-inhibitory concentration (IC50) in data set [2] stood at 351 nM. In addition, in data set [3], the half-life is 2.2 h.

Turning to `C#C[C@]1(CO)O[C@@H](n2ccc3c(N)nc(Cl)nc32)C[C@@H]1OC(=O)c1ccccn1` [Example 28, (2R,3S,5R)-5-(4-amino-2-chloro-7H-pyrrolo[2,3-d]pyrimidin-7-yl)-2-ethynyl-2-(hydroxymethyl)tetrahydrofuran-3-yl picolinate], in data set [1] (phosphate buffered saline), the solubility at 24 h is 68 µg/mL (≈ 164 µM). In data set [2], the IC50 was determined as 4.3 nM.

For the compound `C#C[C@]1(CO)O[C@@H](n2ccc3c(N)nc(Cl)nc32)C[C@@H]1OC(=O)Cc1ccc(Cl)cc1` [Example 32, (2R,3S,5R)-5-(4-amino-2-chloro-7H-pyrrolo[2,3-d]pyrimidin-7-yl)-2-ethynyl-2-(hydroxymethyl)tetrahydrofuran-3-yl 2-(4-chlorophenyl)acetate], the solubility at 24 h in data set [1] (phosphate buffered saline) amounted to 3.7 µg/mL (≈ 8.02 µM). Moreover, the 50% inhibitory concentration (IC50) in data set [2] turned out to be 5.1 nM.

For `C#C[C@]1(COC(=O)CCCC[C@@H]2SC[C@@H]3NC(=O)N[C@@H]32)O[C@@H](n2ccc3c(N)nc(Cl)nc32)C[C@@H]1OC(=O)CCCc1ccccc1` [Example 190], the solubility at 24 h in data set [1] (phosphate buffered saline) is under 1 µg/mL. The IC50 in data set [2] is 6.5 nM.

On to `C#C[C@]1(CO)O[C@@H](n2ccc3c(NC(=O)c4ccccc4)nc(Cl)nc32)C[C@@H]1O` [Example 19, N-(2-chloro-7-((2R,4S,5R)-5-ethynyl-4-hydroxy-5-(hydroxymethyl)tetrahydrofuran-2-yl)-7H-pyrrolo[2,3-d]pyrimidin-4-yl)benzamide], for which, in data set [1] (phosphate buffered saline), the solubility at 24 h is 34 µg/mL (≈ 82.4 µM). The half-inhibitory concentration (IC50) in data set [2] amounted to 382 nM.

Take `C#C[C@]1(COC(=O)Cc2ccc(F)cc2)O[C@@H](n2ccc3c(N)nc(Cl)nc32)C[C@@H]1OC(=O)Cc1ccc(F)cc1` [Example 29, (2R,3S,5R)-5-(4-amino-2-chloro-7H-pyrrolo[2,3-d]pyrimidin-7-yl)-2-ethynyl-2-((2-(4-fluorophenyl)acetoxy)methyl)tetrahydrofuran-3-yl 2-(4-fluorophenyl)acetate]: the solubility at 24 h in data set [1] (phosphate buffered saline) is under 1 µg/mL. In data set [2], the IC50 worked out at 5.8 nM.

Regarding `C#C[C@]1(COC(=O)OCCCCCCC)O[C@@H](n2ccc3c(N)nc(Cl)nc32)C[C@@H]1O` [Example 121], the solubility at 24 h in data set [1] (phosphate buffered saline) amounted to 7 µg/mL (≈ 15.5 µM). Besides, the IC50 in data set [2] was 3.1 nM.

Regarding `C#C[C@]1(COC(=O)C2CCCCC2)O[C@@H](n2ccc3c(N)nc(Cl)nc32)C[C@@H]1O` [Example 88], in data set [1] (phosphate buffered saline), the solubility at 24 h was found to be 157 µg/mL (≈ 375 µM). For the same compound, in data set [2], the IC50 was found to be 4.4 nM.

Consider `C#C[C@]1(CO)O[C@@H](n2ccc3c(NC(=O)CCCCCCCCCCC)nc(Cl)nc32)C[C@@H]1O` [Example 21, N-(2-chloro-7-((2R,4S,5R)-5-ethynyl-4-hydroxy-5-(hydroxymethyl)tetrahydrofuran-2-yl)-7H-pyrrolo[2,3-d]pyrimidin-4yl)dodecanamide], for which the solubility at 24 h in data set [1] (phosphate buffered saline) was under 1 µg/mL. Also, the IC50 in data set [2] was found to be 18 nM.

On to `C#C[C@]1(COC(=O)c2ccccn2)O[C@@H](n2ccc3c(N)nc(Cl)nc32)C[C@@H]1OC(=O)c1ccccn1` [Example 49, (2R,3S,5R)-5-(4-amino-2-chloro-7H-pyrrolo[2,3-d]pyrimidin-7-yl)-2-ethynyl-2-((picolinoyloxy)methyl)tetrahydrofuran-3-yl picolinate], for which, in data set [1] (phosphate buffered saline), the solubility at 24 h turned out to be 49 µg/mL (≈ 94.4 µM). The concentration for half-maximal inhibition (IC50) in data set [2] is 7.5 nM.

As for `C#C[C@]1(COC(=O)OCCCCCCCC)O[C@@H](n2ccc3c(N)nc(Cl)nc32)C[C@@H]1O` [Example 39, ((2R,3S,5R)-5-(4-amino-2-chloro-7H-pyrrolo[2,3-d]pyrimidin-7-yl)-2-ethynyl-3-hydroxytetrahydrofuran-2-yl)methyl octyl carbonate], the solubility at 24 h in data set [1] (phosphate buffered saline) is under 1 µg/mL. Besides, the half-maximal inhibitory concentration (IC50) in data set [2] stood at 3 nM.

For `C#C[C@]1(COC(=O)CCCCCCCCCCC)O[C@@H](n2ccc3c(N)nc(Cl)nc32)C[C@@H]1O` [Example 90], the solubility at 24 h in data set [1] (phosphate buffered saline) was under 1 µg/mL. Besides, the half-inhibitory concentration (IC50) in data set [2] worked out at 3.9 nM.

In the case of `C#C[C@]1(CO)O[C@@H](n2ccc3c(N)nc(Cl)nc32)C[C@@H]1OC(=O)CCCC[C@@H]1SC[C@@H]2NC(=O)N[C@@H]21` [Example 184], the solubility at 24 h in data set [1] (phosphate buffered saline) is 161 µg/mL (≈ 301 µM). In data set [2], the 50% inhibitory concentration (IC50) amounted to 57 nM.

Consider `C#C[C@]1(COC(=O)CC(C)(C)C)O[C@@H](n2ccc3c(N)nc(Cl)nc32)C[C@@H]1O` [Example 89], for which the solubility at 24 h in data set [1] (phosphate buffered saline) was 365 µg/mL (≈ 897 µM). In addition, in data set [2], the IC50 amounted to 29 nM.

As for `C#C[C@]1(COC(=O)CCCC)O[C@@H](n2ccc3c(N)nc(Cl)nc32)C[C@@H]1OC(=O)OC` [Example 189], the solubility at 24 h in data set [1] (phosphate buffered saline) is 23 µg/mL (≈ 51 µM). Besides, the IC50 in data set [2] was 19 nM.

As to `C#C[C@]1(COC(=O)OC(CC)CC)O[C@@H](n2ccc3c(N)nc(Cl)nc32)C[C@@H]1O` [Example 86], the solubility at 24 h in data set [1] (phosphate buffered saline) stood at 145 µg/mL (≈ 343 µM). In addition, in data set [2], the IC50 worked out at 13 nM.

Regarding `C#C[C@]1(COC(=O)CCCc2ccccc2)O[C@@H](n2ccc3c(N)nc(Cl)nc32)C[C@@H]1O` [Example 129], in data set [1] (phosphate buffered saline), the solubility at 24 h amounted to 37 µg/mL (≈ 81.3 µM). Further, in data set [2], the IC50 turned out to be 3.1 nM.

With `C#C[C@]1(COC(=O)OCc2ccn(C)c(=O)c2)O[C@@H](n2ccc3c(N)nc(Cl)nc32)C[C@@H]1OC(=O)OCc1ccn(C)c(=O)c1` [Example 226], the solubility at 24 h in data set [1] (phosphate buffered saline) is 19 µg/mL (≈ 29.7 µM). Also, the concentration for half-maximal inhibition (IC50) in data set [2] came to 13 nM.

As to `C#C[C@]1(COC(=O)Cc2ccc(Cl)cc2)O[C@@H](n2ccc3c(N)nc(Cl)nc32)C[C@@H]1O` [Example 33, ((2R,3S,5R)-5-(4-amino-2-chloro-7H-pyrrolo[2,3-d]pyrimidin-7-yl)-2-ethynyl-3-hydroxytetrahydrofuran-2-yl)methyl 2-(4-chlorophenyl)acetate], the solubility at 24 h in data set [1] (phosphate buffered saline) was determined as 41 µg/mL (≈ 88.9 µM). Moreover, in data set [2], the IC50 was 2.4 nM.

As to `C#C[C@]1(CO)O[C@@H](n2ccc3c(N)nc(Cl)nc32)C[C@@H]1OC(=O)CCC` [Example 179], the solubility at 24 h in data set [1] (phosphate buffered saline) was found to be 27 µg/mL (≈ 71.3 µM). Besides, the IC50 in data set [2] is 11 nM.

`C#C[C@]1(CO)O[C@@H](n2ccc3c(N)nc(Cl)nc32)C[C@@H]1OC(=O)CCCCC` [Example 59, (2R,3S,5R)-5-(4-amino-2-chloro-7H-pyrrolo[2,3-d]pyrimidin-7-yl)-2-ethynyl-2-(hydroxymethyl)tetrahydrofuran-3-yl hexanoate]: the solubility at 24 h in data set [1] (phosphate buffered saline) came out at 16 µg/mL (≈ 39.3 µM). In data set [2], the 50% inhibitory concentration (IC50) amounted to 2.8 nM.

With `C#C[C@]1(COP(=O)(N[C@@H](C)C(=O)OC(C)C)Oc2ccc3ccccc3c2)O[C@@H](n2ccc3c(N)nc(Cl)nc32)C[C@@H]1O` (some centres unmarked) [Example 75], the solubility at 24 h in data set [1] was 30 µg/mL (≈ 47.8 µM). Also, in data set [2], the half-inhibitory concentration (IC50) was determined as 47 nM.

Consider `C#C[C@]1(COC(=O)OCCc2ccccc2)O[C@@H](n2ccc3c(N)nc(Cl)nc32)C[C@@H]1O` [Example 124], for which, in data set [1] (phosphate buffered saline), the solubility at 24 h amounted to 71 µg/mL (≈ 155 µM). Further, the half-maximal inhibitory concentration (IC50) in data set [2] turned out to be 3.6 nM.

Regarding `C#C[C@]1(COC(=O)CCCCCC)O[C@@H](n2ccc3c(N)nc(Cl)nc32)C[C@@H]1O` [Example 119], the solubility at 24 h in data set [1] (phosphate buffered saline) came to 57 µg/mL (≈ 135 µM). For the same compound, the IC50 in data set [2] came out at 3.5 nM.

Regarding `C#C[C@]1(COC(=O)CCCCCCCCCCCCC)O[C@@H](n2ccc3c(N)nc(Cl)nc32)C[C@@H]1O` [Example 87], in data set [1] (phosphate buffered saline), the solubility at 24 h is under 1 µg/mL. Further, the IC50 in data set [2] came out at 3.8 nM.

As to `C#C[C@]1(COC(=O)OCc2ccccc2)O[C@@H](n2ccc3c(N)nc(Cl)nc32)C[C@@H]1OC(C)=O` [Example 193], in data set [1] (phosphate buffered saline), the solubility at 24 h was found to be 1.2 µg/mL (≈ 2.47 µM). In data set [2], the IC50 is 29 nM.

The solubility is how much of the substance goes into solution per volume. Usually IC50 stands for the concentration that gives 50% inhibition.
